The text below walks through data of patent US9440980B2, “Remedy for diabetes” (EA Pharma Co., Ltd., priority 2007, dated 2016).

Assay [1] has as its target T1, PI3-kinase β in the presence of Gβ1γ2-His (Homo sapiens, UniProt P42338+P62873).
T1 construct: purchased Upstate 14-603
Kind of assay: PI3-kinase β activation assay in the presence of Gβ1γ2-His (scintillation counting). It is filed as biochemical. Conditions: FIG. 17. The procedure: A lipid micelle solution was prepared in accordance with a method described in Example 24 (2), to this was added the Gβ1γ2-His prepared in (1) at a concentration of 13.3 μg/ml, and the mixture was left on ice for 10 minutes. To 30 μl of the resultant solution were added 5 μl of a solution containing Compound 1 or 6 and 5 μl of a PI3-kinase β solution (5 μg/ml) successively. A 40 μM ATP solution (10 μl) containing ^32P-γ-ATP was added thereto, and a reaction was carried out at room temperature for 2 hours. The reaction was stopped by addition of 80 μl of 1N HCl, and the lipid was extracted with 300 μl of chloroform:methanol (1:1). The organic layer was washed with 80 μl of 1N HCl twice, 10 ml of a liquid scintillator (Hionic Fluor) was added thereto, and the […] was measured by a liquid scintillation counter.

Assay [2] concerns PI3-kinase β (p110β/p85α). Kind of assay: PI3-kinase subtype activity with or without Gβ1γ2-Myc (PIP3 production, 32P-ATP, TLC). It is filed as biochemical.
Description: The subtypes α (PI3 Kinase (p110α/p85α), active, Upstate, Product No. 14-602), β (PI3 Kinase (p110β/p85α), active, Upstate, Product No. 14-603), γ ((PI3KγHis-GST (Phosphoinositide 3-kinase p110γHis/p101GST) human, Recombinant, Sf9 insect cell, JENA Bioscience, Product No. PR-347S), and δ (PI3 Kinase (p110δ/p85α), active, Upstate, Product No. 14-604) were used as the PI3-kinase subtypes respectively. A PI3K buffer (40 mM HEPES-Na (pH 7.4), 120 mM NaCl, 1 mM EGTA, 1 mM dithiothreitol, 1 mM β glycerophosphoric acid, 10 mM MgCl2, 0.1% BSA) was used as a buffer in the following reactions.
To the lipid micelle solution (125 μl) was added the purified Gβ1γ2-Myc solution (250 μl, 10 μg/ml) obtained in (1), and the resultant solution was stirred and left in ice for 10 minutes. 30 μl of the lipid micelle solution containing the Gβγ2-Myc was dispensed into 1.5-ml microtubes, and to these were added 5 μl of a compound solution and 5 μl of each PI3-kinase subtype (α, β, and δ: 5 μg/ml, γ: 2.5 μg/ml) successively. The mixture was left at room temperature for 10 minutes, and a 40-μM ATP solution (10 μl) containing ^32P-γ-ATP was added thereto, to initiate a reaction. The amount of the ^32P-γ-ATP added was about 300 kBq per one reaction. The reaction was carried out at room temperature for 30 minutes, and stopped by adding 80 μl of 1N HCl at ice temperature. 300 μl of a chloroform:methanol (1:1) solution was added thereto, the mixture was stirred to extract the lipid, and the organic layer was washed with 80 μl of 1N HCl twice. The solvent was removed from the residual organic layer under reduced pressure, the residue was dissolved in 20 μl of a chloroform:methanol (4:1) solution, the entire solution was spotted on a TLC plate (Merck, Kieselgel 60), and a TLC was carried out for about 4 hours using a developer of acetic acid:water:1-propanol (4:31:65). The TLC plate was treated with oxalic acid beforehand such that the plate was sufficiently developed by a 40% methanol solution containing 1% of potassium oxalate, dried overnight, and activated at 110° C. for 30 minutes. After the developing, the TLC plate was sufficiently dried and exposed using an imaging plate, and data were obtained by BAS2000 (FUJIFILM Corporation). The data were analyzed by a software of BAS2000, the analysis region was controlled such that spots of phosphatidylinositol-[3,4,5]-trisphosphate (PIP3) in the TLC lanes have the same areas, and the energy (PSL) corresponding to each radioactivity was quantified in the region.
A lipid micelle solution was prepared in the same manner as (2). […] The reaction was carried out at room temperature for 15 minutes, the resultant was treated in the same manner as (2), and the amount of the produced PIP3 was measured.
The next assay deals with isolated adipocytes. The assay is described as follows: Measurement of glucose uptake activity in isolated rat adipocytes (2-[14C]-deoxy-D-glucose). Type of assay: cell-based. Conditions: Adipocyte, glucose uptake of insulin (100 nM) = 100%. The procedure: A male Wistar rat was decapitated and exsanguinated, and then a paratesticular adipose tissue was resected therefrom after laparotomy. The tissue was cut in a KRH (Krebs-Ringer HEPES: 130 mM NaCl, 4.7 mM KCl, 1.2 mM KH2PO4, 1.2 mM MgSO4, 1 mM CaCl2, 25 mM HEPES) containing a BSA (bovine serum albumin), a collagenase (type I) was added thereto, and the resultant was subjected to a digestive treatment for about 40 minutes to obtain isolated adipocytes. The buffer was replaced to remove the collagenase, and a 2% BSA/KRH solution was added thereto, whereby the adipocytes were floated again to obtain a adipocytes suspension.
The glucose uptake activity of a test substance compound was evaluated in accordance with Non-Patent Document 14: Simpson et al., Annual Review of Biochemistry, 55, 1059, (1986). Thus, 200 μl of the adipocytes suspension was dispensed into each polystyrene test tube, 100 μl of a solution containing the test substance compound was added thereto, and the test tube was shaken and incubated at 37° C. for 30 minutes. The glucose uptake activity was evaluated by measuring the amount of 2-[^14C(U)]-deoxy-D-glucose uptaken per unit time. Thus, the 2-[^14C(U)]-deoxy-D-glucose was added to the preincubated adipocytes suspension at the final concentration of 0.5 μCi/sample, and after 5 minutes, cytochalasin B was added thereto at the final concentration of 10 μM to stop the glucose uptake. Dinonyl phthalate was superposed over the solution, the resultant was centrifuged to separate the fat cells from the buffer, and the amount of the 2-[^14C(U)]-deoxy-D-glucose contained in the fat cell layer was measured by a liquid scintillation counter, whereby the uptaken glucose amount was determined. The glucose uptake of insulin (100 nM) was evaluated in the same manner and considered to be 100%, and thus the EC50 value of each compound was obtained.

The next assay has as its target T2, Gβ1γ2-Myc (Homo sapiens, UniProt P62873).
T2 construct: made in house; host or cells: Sf21 insect cells (baculovirus), unpurified Triton X-100 extract
Kind of assay: Gβ binding ability using Gβ-expressing insect cell extract solution (PD10 method). Conditions: binding strength Compound 1>Compound 3>Compound 6, FIG. 8. Here is the method:
The PD10 method was carried out as follows. To a microtube were added 250 μl of an RBA buffer, 100 μl of an RBA buffer containing 0 or 500 μM of the unlabeled Compound 1, 100 μl of the above extract solution, and 50 μl of an RBA buffer containing 2.5 μM of the ^3H-labeled Compound 1 successively, and the resultant mixture was stirred and left at room temperature for 1 hour. The entire reaction solution (0.5 ml) was added to a PD10 column sufficiently substituted with the RBA buffer, 2 ml of the RBA buffer was passed through the PD10 column, and thereafter further eluate by 1.5 ml of the RBA buffer was collected as a high-molecular fraction containing the protein, 15 ml of a liquid scintillator was added thereto, and the amount of the ^3H-labeled Compound 1 contained in the high-molecular fraction was measured by a scintillation counter. The count of the sample added with the unlabeled Compound 1 at the final concentration of 100 μM was considered to correspond to the nonspecific binding, the difference between the nonspecific binding count and the count of the sample not added with the unlabeled Compound 1 was considered to correspond to the specific binding, and thus the amount of the binding protein contained in the extract solution was evaluated.
Using the frozen insect cell Sf21 expressing the Gβ1, Myc-Gγ2, and Gαi1-His prepared in Example 19 (8), 10^7 cells were melted and suspended in 1.3 ml of an RBA buffer containing 1% Triton X-100 (75 mM Tris-HCl, 12.5 mM MgCl2, 2 mM EDTA, pH 7.4). […]
The inhibitory activity against the binding of the ^3H-labeled Compound 1 to the Gβ1γ2-Myc was considered to correspond to the activity of the compounds for binding to the Gβ1γ2-Myc. Thus, the activity of each of Compounds 1, 3, and 6 for binding to the Gβ1γ2-Myc was measured using the above extract solution. The activity of the ^3H-labeled Compound 1 for binding to the protein contained in the extract solution was measured by the PD10 method described in Example 15 (1). […]

T2 sequence (P62873 whole entry): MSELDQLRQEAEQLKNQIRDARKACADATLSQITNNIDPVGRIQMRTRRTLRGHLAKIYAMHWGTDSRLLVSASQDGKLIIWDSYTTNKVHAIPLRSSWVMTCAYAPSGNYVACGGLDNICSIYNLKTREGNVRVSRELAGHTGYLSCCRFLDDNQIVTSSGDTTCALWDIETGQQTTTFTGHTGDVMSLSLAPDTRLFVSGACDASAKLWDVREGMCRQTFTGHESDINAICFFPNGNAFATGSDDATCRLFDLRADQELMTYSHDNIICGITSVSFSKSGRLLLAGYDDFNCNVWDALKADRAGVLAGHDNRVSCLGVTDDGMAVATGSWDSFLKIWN
T2 sequence (P59768 with tags, fused parts or gaps partner limits assumed): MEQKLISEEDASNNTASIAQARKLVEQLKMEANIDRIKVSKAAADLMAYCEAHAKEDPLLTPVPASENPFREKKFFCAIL
T1 sequence (P42338 whole entry): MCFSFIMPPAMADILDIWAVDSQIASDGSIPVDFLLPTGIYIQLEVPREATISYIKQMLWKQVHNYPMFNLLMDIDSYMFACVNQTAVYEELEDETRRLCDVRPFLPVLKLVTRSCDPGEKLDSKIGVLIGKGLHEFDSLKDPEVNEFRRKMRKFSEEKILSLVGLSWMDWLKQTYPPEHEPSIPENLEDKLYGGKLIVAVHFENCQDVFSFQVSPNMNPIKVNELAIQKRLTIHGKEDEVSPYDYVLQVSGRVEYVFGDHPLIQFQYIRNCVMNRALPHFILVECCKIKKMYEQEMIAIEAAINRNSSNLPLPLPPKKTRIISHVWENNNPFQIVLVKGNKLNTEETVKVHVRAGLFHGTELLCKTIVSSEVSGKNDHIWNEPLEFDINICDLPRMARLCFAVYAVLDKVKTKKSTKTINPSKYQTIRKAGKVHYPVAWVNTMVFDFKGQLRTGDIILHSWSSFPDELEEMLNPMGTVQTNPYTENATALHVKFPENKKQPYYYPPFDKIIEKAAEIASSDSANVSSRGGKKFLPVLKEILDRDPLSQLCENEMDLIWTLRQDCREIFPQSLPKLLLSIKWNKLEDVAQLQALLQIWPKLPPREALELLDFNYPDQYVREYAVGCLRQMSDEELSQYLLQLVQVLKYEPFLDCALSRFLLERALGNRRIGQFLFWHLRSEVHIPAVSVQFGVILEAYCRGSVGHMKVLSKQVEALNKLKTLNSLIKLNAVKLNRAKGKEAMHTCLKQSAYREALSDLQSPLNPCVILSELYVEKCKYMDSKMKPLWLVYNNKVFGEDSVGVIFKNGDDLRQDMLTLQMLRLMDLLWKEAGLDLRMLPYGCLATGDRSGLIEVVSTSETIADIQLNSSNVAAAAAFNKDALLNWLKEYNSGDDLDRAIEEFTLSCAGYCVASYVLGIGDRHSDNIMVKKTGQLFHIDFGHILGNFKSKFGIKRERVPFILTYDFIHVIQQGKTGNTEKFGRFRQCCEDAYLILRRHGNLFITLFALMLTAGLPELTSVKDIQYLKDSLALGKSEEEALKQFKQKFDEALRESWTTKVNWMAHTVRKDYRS
T1 sequence (P27986 whole entry partner): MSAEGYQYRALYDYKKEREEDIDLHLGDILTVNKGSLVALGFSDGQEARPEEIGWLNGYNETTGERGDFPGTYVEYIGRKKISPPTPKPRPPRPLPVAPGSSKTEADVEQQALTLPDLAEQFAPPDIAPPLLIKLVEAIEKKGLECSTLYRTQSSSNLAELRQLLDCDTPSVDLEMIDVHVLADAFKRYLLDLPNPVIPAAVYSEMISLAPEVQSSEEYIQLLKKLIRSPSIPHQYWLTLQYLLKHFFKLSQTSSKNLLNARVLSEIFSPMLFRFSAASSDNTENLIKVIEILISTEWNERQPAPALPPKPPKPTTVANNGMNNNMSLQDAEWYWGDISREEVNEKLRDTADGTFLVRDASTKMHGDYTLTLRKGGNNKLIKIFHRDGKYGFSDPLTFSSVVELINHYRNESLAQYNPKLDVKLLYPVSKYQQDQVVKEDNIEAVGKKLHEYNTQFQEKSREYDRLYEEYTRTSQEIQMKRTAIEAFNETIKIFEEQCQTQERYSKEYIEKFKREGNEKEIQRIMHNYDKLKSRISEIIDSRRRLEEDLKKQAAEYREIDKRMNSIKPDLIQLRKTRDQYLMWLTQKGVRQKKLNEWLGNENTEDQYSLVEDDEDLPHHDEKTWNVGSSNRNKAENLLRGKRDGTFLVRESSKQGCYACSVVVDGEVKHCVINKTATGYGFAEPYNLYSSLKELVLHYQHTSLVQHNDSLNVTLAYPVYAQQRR
T1 sequence (P62873 whole entry): as the sequence (P62873 whole entry) above
T1 sequence (P59768 with tags, fused parts or gaps partner limits assumed): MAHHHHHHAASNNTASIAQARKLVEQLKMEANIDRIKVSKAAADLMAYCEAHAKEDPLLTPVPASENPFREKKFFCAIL

Take `O=C1NCC2=C1[C@@H](c1cccc3ccsc13)N(C(=O)CCc1ccccn1)[C@@H]1CCCC[C@H]1N2` [Compound 1]: the “PI3-kinase activity compared with the case without compound” value in assay [1] (0.1 μM, 10 μM) is given as “clearly increased”. The “effect on PI3-kinase β activity” value in assay [2] (30 μM, presence of Gβ1γ2-Myc, FIG. 13) is “significant activating effect only on the PI3-kinase β”; in assay [2] (absence of the Gβ (Gβ1γ2-Myc), FIG. 14) it was “no effects”. Moreover, in assay [2] (presence of Gβ1γ2-Myc, concentration-dependent, 0.1, 1, and 10 μM, FIG. 14), the “effect of enhancing the enzymatic activity of the PI3-kinase β” value was “significant effect of enhancing the enzymatic activity”. Moreover, the 50% effective concentration (EC50) – broadly, the midpoint of the concentration-response curve – in the assay with isolated adipocytes stood at 8 nM. The “binding to Gβ1γ2-Myc (inhibition of 3H-labeled Compound 1 binding)” value at Gβ1γ2-Myc is “could be bound to the Gβγ2-Myc”.
On to `O=C1NCC2=C1[C@@H](c1ccccc1)N(C(=O)CO)[C@@H]1CCCC[C@H]1N2` [Compound 6], for which the “PI3-kinase activity compared with the case without compound” value in assay [1] (100 μM) is recorded as “clearly increased”. Besides, the “effect of enhancing the enzymatic activity of the PI3-kinase β” value in assay [2] (presence of Gβ1γ2-Myc, concentration-dependent, 100 μM and 1 mM, FIG. 14) is listed as “significant effect of enhancing the enzymatic activity”. This compound also displayed a concentration giving a half-maximal response (EC50) in the assay with isolated adipocytes of 4000 nM. In addition, the “binding to Gβ1γ2-Myc (inhibition of 3H-labeled Compound 1 binding)” value at Gβ1γ2-Myc is given as “could be bound to the Gβγ2-Myc”.
